# Experimental data taken from US11414418B2, “Compounds useful as immunomodulators” (Bristol-Myers Squibb Company, priority 2018, dated 2022).
# Biological target: PD-1/PD-L1 interaction (PD-1-Ig / PD-L1-His) (Homo sapiens (Human), UniProt Q9NZQ7)
# Test: PD-1/PD-L1 Homogenous Time-Resolved Fluorescence (HTRF) binding assay
# Settings: PD-L1-His 10 nM final, PD-1-Ig 20 nM final
# Description: The ability of the compounds of formula (I) to bind to PD-L1 was investigated using a PD-1/PD-L1 Homogenous Time-Resolved Fluorescence (HTRF) binding assay.
# 1. Homogenous Time-Resolved Fluorescence (HTRF) Binding Assay.
# The interaction of PD-1 and PD-L1 can be assessed using soluble, purified preparations of the extracellular domains of the two proteins. The PD-1 and PD-L1 protein extracellular domains were expressed as fusion proteins with detection tags, for PD-1, the tag was the Fc portion of Immunoglobulin (PD-1-Ig) and for PD-L1 it was the 6 histidine motif (PD-L1-His). All binding studies were performed in an HTRF assay buffer consisting of dPBS supplemented with 0.1% […] bovine serum albumin and 0.05% (v/v) Tween-20. For the h/PD-L1-His binding assay, inhibitors were pre-incubated with PD-L1-His (10 nM final) for 15 m in 4 μl of assay buffer, followed by addition of PD-1-Ig (20 nM final) in 1 μl of assay buffer and further incubation for 15 m. HTRF detection was achieved using europium crypate-labeled anti-Ig (1 nM final) and allophycocyanin (APC) labeled anti-His (20 nM final). Antibodies were diluted in HTRF detection buffer and 5 μl was dispensed on top of the binding reaction. The reaction mixture was allowed to equilibrate for 30 minutes and the resulting signal (665 nm/620 nm ratio) was obtained using an EnVision fluorometer. Additional binding assays were established between the human proteins PD-1-Ig/PD-L2-His (20 & 5 nM, respectively) and CD80-His/PD-L1-Ig (100 & 10 nM, respectively).
# Recombinant Proteins: Human PD-1 (25-167) with a C-terminal human Fc domain of immunoglobulin G (Ig) epitope tag [hPD-1 (25-167)-3S-IG] and human PD-L1 (18-239) with a C-terminal His epitope tag [hPD-L1 (18-239)-TVMV-His] were expressed in HEK293T cells and purified sequentially by ProteinA affinity chromatography and size exclusion chromatography. Human PD-L2-His and CD80-His was obtained through commercial sources.
# PD-1/PD-L1 interaction (PD-1-Ig / PD-L1-His), sequence (Q9NZQ7 other isoform, or with tags, fused parts or gaps): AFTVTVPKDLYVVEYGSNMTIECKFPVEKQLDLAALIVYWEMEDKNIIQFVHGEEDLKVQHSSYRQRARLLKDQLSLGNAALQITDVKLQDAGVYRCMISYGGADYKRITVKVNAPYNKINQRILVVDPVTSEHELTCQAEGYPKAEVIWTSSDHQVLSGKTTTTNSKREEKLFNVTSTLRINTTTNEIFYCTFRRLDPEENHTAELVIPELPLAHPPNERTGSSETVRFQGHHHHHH
row,SMILES,IC50
1,"O=C(CCCN1CC[C@@H](OCc2ccccc2)C1)N1CCCC2(CCCN(C(=O)CCCN3CC[C@@H](OCc4ccccc4)C3)C2)C1 [Example 1001, 1,1′-(2,8-diazaspiro[5.5]undecane-2,8-diyl)bis(4-((R)-3-(benzyloxy)pyrrolidin-1-yl)butan-1-one)]",> 2.5 µM
2,"O=C(CCCN1CC[C@@H](O)C1)N1CCCC2(CCCN(C(=O)CCCN3CC[C@@H](O)C3)C2)C1 [Example 1002, 1,1′-(2,8-diazaspiro[5.5]undecane-2,8-diyl)bis(4-((R)-3-hydroxypyrrolidin-1-yl)butan-1-one)]",0.84 µM
3,"C[C@@](CO)(NCc1cc(Cl)c(CCC(=O)N2CCCC3(CCCN(C(=O)CCCN4CC[C@@H](OCc5ccccc5)C4)C3)C2)cc1OCc1cncc(C(N)=O)c1)C(=O)O (stereo partly drawn) [Example 1003, (2S)-2-((4-(3-(8-(4-((R)-3-(benzyloxy)pyrrolidin-1-yl)butanoyl)-2,8-diazaspiro[5.5]undecan-2-yl)-3-oxopropyl)-2-((5-carbamoylpyridin-3-yl)methoxy)-5-chlorobenzyl)amino)-3-hydroxy-2-methylpropanoic acid]",> 10 µM
4,"C[C@@](CO)(NCc1cc(Cl)c(CCC(=O)N2CCCC3(CCCN(C(=O)CCCN4CC[C@@H](OCc5ccccc5)C4)C3)C2)cc1OCc1cncc(C#N)c1)C(=O)O (stereo partly drawn) [Example 1004, (2S)-2-((4-(3-(8-(4-((R)-3-(benzyloxy)pyrrolidin-1-yl)butanoyl)-2,8-diazaspiro[5.5]undecan-2-yl)-3-oxopropyl)-5-chloro-2-((5-cyanopyridin-3-yl)methoxy)benzyl)amino)-3-hydroxy-2-methylpropanoic acid]",> 10 µM
5,"COC(=O)c1cncc(COc2cc(CCC(=O)N3CCCC4(CCCN(C(=O)CCCN5CC[C@@H](OCc6ccccc6)C5)C4)C3)c(Cl)cc2CN[C@@](C)(CO)C(=O)O)c1 (stereo partly drawn) [Example 1005, (2S)-2-((4-(3-(8-(4-((R)-3-(benzyloxy)pyrrolidin-1-yl)butanoyl)-2,8-diazaspiro[5.5]undecan-2-yl)-3-oxopropyl)-5-chloro-2-((5-(methoxycarbonyl)pyridin-3-yl)methoxy)benzyl)amino)-3-hydroxy-2-methylpropanoic acid]",> 10 µM
